Source: ChEMBL document CHEMBL1201862, “PubChem BioAssay data set” (2004)
Active and inactive are the calls of the source. Rule as the data show it, for most assays here: actives have a measured IC50 and inactives only a lower limit.

Key:
[1] = molecular target: T1, Mannose-6-phosphate isomerase (Homo sapiens, UniProt P34949); assay: PMI enzyme inhibitors, confirmation, biochemical, fluorescence intensity (AID 1535)
T1 sequence (P34949 whole entry): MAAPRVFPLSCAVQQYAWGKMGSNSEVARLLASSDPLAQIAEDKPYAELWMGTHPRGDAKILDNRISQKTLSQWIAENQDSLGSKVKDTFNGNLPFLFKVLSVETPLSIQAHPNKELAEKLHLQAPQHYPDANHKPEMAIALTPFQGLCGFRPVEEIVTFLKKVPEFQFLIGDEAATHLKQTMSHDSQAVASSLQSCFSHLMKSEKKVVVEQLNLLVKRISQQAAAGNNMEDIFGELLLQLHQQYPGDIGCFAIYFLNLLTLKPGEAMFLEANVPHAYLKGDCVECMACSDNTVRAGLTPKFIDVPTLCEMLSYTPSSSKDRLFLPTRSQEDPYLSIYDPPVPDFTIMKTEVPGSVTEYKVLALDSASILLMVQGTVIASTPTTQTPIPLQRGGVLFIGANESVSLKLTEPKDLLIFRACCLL

Phosphomannomutase 2 = Phosphomannomutase 2 (Homo sapiens, UniProt O15305); assay: Counter screen SAR assay for PMM2 inhibitors via a fluorescence intensity assay. [Related pubchem assays (depositor defined):AID1545, AID1574]
Sequence of Phosphomannomutase 2 (O15305 whole entry): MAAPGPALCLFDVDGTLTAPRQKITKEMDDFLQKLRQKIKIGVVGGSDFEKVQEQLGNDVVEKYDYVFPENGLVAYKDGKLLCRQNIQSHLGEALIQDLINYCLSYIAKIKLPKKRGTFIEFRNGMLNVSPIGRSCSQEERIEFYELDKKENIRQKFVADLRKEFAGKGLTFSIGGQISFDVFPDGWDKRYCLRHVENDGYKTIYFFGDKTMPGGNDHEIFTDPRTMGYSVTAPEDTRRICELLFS

[2] = molecular target: Tyrosine-protein phosphatase non-receptor type 12 (Homo sapiens, UniProt Q05209); assay: SAR Selectivity Analysis of small molecule inhibitors of PEST using pCAP in a fluorescence assay. [Related pubchem assays (depositor defined):AID1779, AID1784, AID2135]; assay type: functional
Sequence of Tyrosine-protein phosphatase non-receptor type 12 (Q05209 whole entry): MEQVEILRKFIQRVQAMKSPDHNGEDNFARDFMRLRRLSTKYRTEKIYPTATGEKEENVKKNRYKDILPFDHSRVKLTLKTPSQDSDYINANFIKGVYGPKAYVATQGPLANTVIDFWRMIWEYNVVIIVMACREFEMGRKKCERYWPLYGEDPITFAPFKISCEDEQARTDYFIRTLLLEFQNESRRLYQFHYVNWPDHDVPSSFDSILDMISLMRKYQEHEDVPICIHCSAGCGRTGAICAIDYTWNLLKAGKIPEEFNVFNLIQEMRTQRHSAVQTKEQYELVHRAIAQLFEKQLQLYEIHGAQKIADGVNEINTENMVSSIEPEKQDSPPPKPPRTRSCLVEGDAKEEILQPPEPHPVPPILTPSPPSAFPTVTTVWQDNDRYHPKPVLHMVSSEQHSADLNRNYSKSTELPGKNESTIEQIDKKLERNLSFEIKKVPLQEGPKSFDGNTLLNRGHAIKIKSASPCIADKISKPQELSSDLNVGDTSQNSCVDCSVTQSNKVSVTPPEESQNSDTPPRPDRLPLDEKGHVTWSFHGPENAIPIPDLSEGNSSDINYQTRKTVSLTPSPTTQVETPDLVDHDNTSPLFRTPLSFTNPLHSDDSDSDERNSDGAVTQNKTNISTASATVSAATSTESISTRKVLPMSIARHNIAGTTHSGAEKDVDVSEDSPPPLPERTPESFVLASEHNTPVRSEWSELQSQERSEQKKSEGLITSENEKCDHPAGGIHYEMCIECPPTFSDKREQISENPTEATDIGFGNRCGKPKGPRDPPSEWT

[3] = molecular target: T2, Tyrosine-protein phosphatase non-receptor type 22 (Homo sapiens, UniProt Q9Y2R2); assay: SAR LYP1 Fluorescent Assay using OMFP substrate for In Vitro dose response studies - Set 3. [Related pubchem assays (depositor defined):AID1779, AID1784, AID2140, AID2686]; assay type: functional
T2 sequence (Q9Y2R2 whole entry): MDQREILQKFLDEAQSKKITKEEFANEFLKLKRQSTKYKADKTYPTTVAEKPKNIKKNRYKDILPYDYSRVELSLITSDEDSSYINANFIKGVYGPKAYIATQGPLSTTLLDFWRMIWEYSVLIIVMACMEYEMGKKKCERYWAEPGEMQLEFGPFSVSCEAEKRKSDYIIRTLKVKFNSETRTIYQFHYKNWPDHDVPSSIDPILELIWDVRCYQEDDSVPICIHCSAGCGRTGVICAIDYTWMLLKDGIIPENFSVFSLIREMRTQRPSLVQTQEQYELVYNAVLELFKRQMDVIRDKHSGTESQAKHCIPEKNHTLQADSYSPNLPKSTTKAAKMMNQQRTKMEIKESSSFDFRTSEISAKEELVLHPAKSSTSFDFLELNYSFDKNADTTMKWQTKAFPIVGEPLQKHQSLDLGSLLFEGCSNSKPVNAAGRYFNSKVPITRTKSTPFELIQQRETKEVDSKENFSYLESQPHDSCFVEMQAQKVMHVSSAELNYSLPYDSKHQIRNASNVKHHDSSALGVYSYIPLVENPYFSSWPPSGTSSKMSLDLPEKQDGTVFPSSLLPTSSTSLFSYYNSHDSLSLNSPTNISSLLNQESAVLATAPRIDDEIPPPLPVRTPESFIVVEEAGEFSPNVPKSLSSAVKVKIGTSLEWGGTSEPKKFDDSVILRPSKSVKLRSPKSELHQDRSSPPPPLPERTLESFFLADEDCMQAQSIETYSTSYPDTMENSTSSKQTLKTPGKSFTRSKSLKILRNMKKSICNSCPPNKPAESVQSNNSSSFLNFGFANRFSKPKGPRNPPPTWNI

[4] = molecular target: T2, Tyrosine-protein phosphatase non-receptor type 22; assay: LYP (PTPN22) phosphatase inhibitor potency, SAR follow-up, biochemical, pCAP fluorogenic substrate, fluorescence, set 3 (AID 449727); assay type: functional
[5] = molecular target: G-protein coupled receptor 55 (Homo sapiens, UniProt Q9Y2T6); assay: GPR55 antagonists, SAR follow-up, counter-screen for GPR35 antagonist project, imaging, image-based (AID 2397); assay type: functional
Sequence of G-protein coupled receptor 55 (Q9Y2T6 whole entry): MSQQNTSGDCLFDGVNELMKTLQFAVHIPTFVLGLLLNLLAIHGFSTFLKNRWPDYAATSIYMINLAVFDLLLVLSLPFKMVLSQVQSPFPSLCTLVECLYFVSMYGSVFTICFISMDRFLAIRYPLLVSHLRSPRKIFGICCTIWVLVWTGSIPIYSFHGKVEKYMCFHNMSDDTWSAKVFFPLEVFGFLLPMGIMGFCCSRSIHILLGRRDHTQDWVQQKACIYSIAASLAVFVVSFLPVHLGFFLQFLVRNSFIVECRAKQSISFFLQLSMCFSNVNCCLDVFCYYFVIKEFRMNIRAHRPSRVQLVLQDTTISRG

Row | IC50 [1] | IC50 (Phosphomannomutase 2) | IC50 [2] | IC50 [3] | IC50 [4] | IC50 [5] | SMILES
1 | 35.8 µM (active) | > 100 µM (inactive) |  |  |  |  | OCc1ccccc1/N=c1\ssnc1Cl
2 |  |  | 94.2 µM (active) | > 100 µM (inactive) | > 100 µM (inactive) | > 32 µM (inactive) | CCOC(=O)c1ccc(NC(=O)CCCN2C(=O)/C(=C/c3ccccc3)SC2=S)cc1
